Source: patent publication US20200390767A1, “Formulations of 4-(7-Hydroxy-2-isopropyl-4-oxo-4H-quinazolin-3-yl)-benzonitrile” (NOVARTIS AG, priority 2019, published 2020)
Values after ≈ are worked out from the molar mass of the structure shown. Read-outs that look alike come from different tables or passages of the source.

Assays:
[1] = PRK clinical study, plasma pharmacokinetics of compound I (LC-MS/MS); format: in vivo, human
Procedure: Pharmacokinetic (PK) samples were collected at the time points defined in the visit schedule supra, with PK blood collection windows shown in Table 27.
All blood samples (3 mL) were taken from the arm by either direct venipuncture or an indwelling catheter inserted in a forearm vein. After each tube of blood was drawn, it was immediately inverted gently 8-10 times to ensure the mixing of tube contents with anticoagulant (3 mL K2 EDTA). Prolonged sample contact with the rubber stopper was avoided and the tubes were placed upright in a test tube rack surrounded by wet ice until centrifugation.
Within 30 minutes, the sample was centrifuged at about 5° C. for 10 minutes at approximately 2000 G (or the sample was placed on ice and centrifuged at room temperature). Immediately after centrifugation, the whole supernatant (approx. 1.5 mL) was transferred in the first 1.8 mL NUNC 2D barcoded cryovial. After mixing the plasma thoroughly, half of the plasma was transferred from the first cryovial to the second cryovial and the caps were secured. Appropriate PK cryolabels were attached to each cryovial and the labels were secured with clear tape. The cryovials were frozen immediately over dry ice then, kept frozen at ≤−20° C. until shipment to the central lab. The vials were shipped in biweekly batches.
Compound I was quantified in plasma using a validated LC-MS/MS method; the lower limit of quantification (LLOQ) was 0.05 ng/mL. Concentrations were expressed in ng per mL units. When feasible, bandage contact lenses (BCL) exposed to study drug were collected and analyzed for residual drug exposure after treatment (LLOQ: 5.00 ng/mL in 0.55 mL of extraction fluid, or 2.75 ng/BCL). Concentrations below the LLOQ were reported as “zero” and missing data were labeled as such.
The following PK parameters were determined as relevant using the actual recorded sampling times and non-compartmental method with Phoenix™ WinNonlin® (Version 6.4): Cmax, Tmax, AUClast (calculated), Clast and Tlast from the plasma concentration-time data. Pre-dose concentrations were determined by inspection at nominal 0, 24 and 72 hours. The linear trapezoidal rule was used for AUClast calculation. No PK parameters were calculated from the bandage contact lenses compound I concentration data.

[2] = system: postoperative ocular pain in patients undergoing photorefractive keratectomy (PRK) surgery; assay: PRK clinical study, oral rescue medication use; format: in vivo, human
Procedure: Rescue medication consisted of oral analgesic (acetaminophen 300 mg+codeine 30 mg) as needed up to a total of 10 tabs/day or 1-2 tabs every 4 hours.
After 36 hours post-operation, the same number of patients took ORM in compound I vs. Vehicle (Table 24).

[3] = Solubility of compound I in solvents; format: physicochemical
Text: As noted above, compound I is sparingly soluble in various media.

[4] = Day 1, plasma, topical ocular 2.5% compound I
[5] = Day 4, plasma, topical ocular 2.5% compound I
[6] = human, plasma, topical, 2.5 %, 4 days

For `CC(C)c1nc2cc(O)ccc2c(=O)n1-c1ccc(C#N)cc1` [Compound I, 4-(7-hydroxy-2-isopropyl-4-oxo-4H-quinazolin-3-yl)-benzonitrile], the “Median Tlast” value [1, 4] was 2.00 h, the “Tlast (range)” value [1, 4] was 1.95 to 2.05 h and the “Median Tlast” value [1, 5] was 2.00 h. For the same compound, the “Tlast (range)” value [1, 5] was 1.77 to 2.10 h, the “Day 1 pre-dose plasma concentrations” value ([1]; LLOQ 0.05 ng/mL) was “below the limit of quantitation” and the Tmax ([1]; human, plasma, topical or ocular, 2.5 %, after either single (first dose) or repeated 4 times daily topical ocular administration, read-out: median plasma Tmax) was ~30 min. It also gave a Tmax ([1]; human, plasma, topical or ocular, 2.5 %, after the first dose (Day 1), unilateral topical ocular 2.5%, read-out: median Tmax, plasma) of 27.5 min, an AUC(0-t) ([1]; human, plasma, topical or ocular, 2.5 %, max, profile day 1, plasma, topical ocular 2.5% compound I, read-out: AUClast) of 1.58 ng·h/mL and a Cmax ([1]; human, plasma, topical or ocular, 2.5 %, max, profile day 1, plasma, topical ocular 2.5% compound I, read-out: Cmax) of 1.05 ng/mL. For the same compound, the Tmax ([1]; human, plasma, topical or ocular, 2.5 %, max, profile day 1, plasma, topical ocular 2.5% compound I, read-out: Tmax) was 120 min, the AUC(0-t) ([1]; human, plasma, topical or ocular, 2.5 %, max, profile day 4, plasma, topical ocular 2.5% compound I, read-out: AUClast) was 14.5 ng·h/mL and the Cmax ([1]; human, plasma, topical or ocular, 2.5 %, max, profile day 4, plasma, topical ocular 2.5% compound I, read-out: Cmax) was 7.56 ng/mL. The Tmax ([1]; human, plasma, topical or ocular, 2.5 %, max, profile day 4, plasma, topical ocular 2.5% compound I, read-out: Tmax) was 125 min, the Cmax ([1]; human, plasma, topical or ocular, 2.5 %, mean, profile day 1 (first dose), plasma, topical ocular 2.5% compound I, PK analysis set, read-out: Cmax) was 0.454 ng/mL and the AUC(0-t) ([1]; human, plasma, topical or ocular, 2.5 %, mean, profile day 1, plasma, topical ocular 2.5% compound I, read-out: AUClast) was 0.638 ng·h/mL. It also gave a Cmax ([1]; human, plasma, topical or ocular, 2.5 %, mean, profile day 4 (13th dose, QID), plasma, topical ocular 2.5% compound I, read-out: Cmax) of 2.4 ng/mL, an AUC(0-t) ([1]; human, plasma, topical or ocular, 2.5 %, mean, profile day 4, plasma, topical ocular 2.5% compound I, read-out: AUClast) of 4.38 ng·h/mL and an AUC(0-t) ([1]; human, plasma, topical or ocular, 2.5 %, median, profile day 1, plasma, topical ocular 2.5% compound I, read-out: AUClast) of 0.569 ng·h/mL. For the same compound, the Cmax ([1]; human, plasma, topical or ocular, 2.5 %, median, profile day 1, plasma, topical ocular 2.5% compound I, read-out: Cmax) was 0.375 ng/mL, the Tmax ([1]; human, plasma, topical or ocular, 2.5 %, median, profile day 1, plasma, topical ocular 2.5% compound I, read-out: Tmax) was 27.5 min and the AUC(0-t) ([1]; human, plasma, topical or ocular, 2.5 %, median, profile day 4, plasma, topical ocular 2.5% compound I, read-out: AUClast) was 3.42 ng·h/mL. It also gave a Cmax ([1]; human, plasma, topical or ocular, 2.5 %, median, profile day 4, plasma, topical ocular 2.5% compound I, read-out: Cmax) of 2.07 ng/mL, a Tmax ([1]; human, plasma, topical or ocular, 2.5 %, median, profile day 4, plasma, topical ocular 2.5% compound I, read-out: Tmax) of 28 min and an AUC(0-t) ([1]; human, plasma, topical or ocular, 2.5 %, min, profile day 1, plasma, topical ocular 2.5% compound I, read-out: AUClast) of 0.261 ng·h/mL. For the same compound, the Cmax ([1]; human, plasma, topical or ocular, 2.5 %, min, profile day 1, plasma, topical ocular 2.5% compound I, read-out: Cmax) was 0.195 ng/mL, the Tmax ([1]; human, plasma, topical or ocular, 2.5 %, min, profile day 1, plasma, topical ocular 2.5% compound I, read-out: Tmax) was 10 min and the AUC(0-t) ([1]; human, plasma, topical or ocular, 2.5 %, min, profile day 4, plasma, topical ocular 2.5% compound I, read-out: AUClast) was 1.18 ng·h/mL. For the same compound, the Cmax ([1]; human, plasma, topical or ocular, 2.5 %, min, profile day 4, plasma, topical ocular 2.5% compound I, read-out: Cmax) was 0.639 ng/mL, the Tmax ([1]; human, plasma, topical or ocular, 2.5 %, min, profile day 4, plasma, topical ocular 2.5% compound I, read-out: Tmax) was 0 min and the Cmax ([1]; human, plasma, topical, 2.5 %, 13th dose on Day 4, read-out: Arithmetic mean plasma Cmax) was 2.4 ng/mL. For the same compound, the AUC(0-t) ([1]; human, plasma, topical, 2.5 %, 13th dose on Day 4, read-out: mean plasma AUClast) was 4.38 ng·h/mL, the “mean AUClast Day 4 versus Day 1” value [1, 6] was 6.9 fold and the “mean Cmax Day 4 versus Day 1” value [1, 6] was 5.3 fold. It also gave a Cmax ([1]; human, plasma, topical, 2.5 %, across 4 days of repeated QID dosing, read-out: observed plasma Cmax, range) of 0.195 to 7.56 ng/mL, an AUC(0-t) ([1]; human, plasma, topical, 2.5 %, across 4 days of repeated QID dosing, read-out: plasma AUClast, range) of 0.261 to 14.5 ng·h/mL and a Tmax ([1]; human, plasma, topical, 2.5 %, after the 13th dose (Day 4), read-out: median Tmax, plasma) of 28 min. It also gave a Cmax ([1]; human, plasma, topical, 2.5 %, first dose on Day 1, read-out: Arithmetic mean plasma Cmax) of 0.454 ng/mL, an AUC(0-t) ([1]; human, plasma, topical, 2.5 %, first dose on Day 1, read-out: mean plasma AUClast) of 0.638 ng·h/mL and a concentration at 24 hr ([1]; human, plasma, topical, 2.5 %, prior to the 5th dose on Day 2 (24 hr post 1st dose), read-out: Trough mean plasma concentration) of 1.25 ng/mL. For the same compound, the concentration at 72 hr ([1]; human, plasma, topical, 2.5 %, prior to the 13th dose on Day 4 (72 hr post 1st dose), read-out: Trough mean plasma concentration) was 1.99 ng/mL, the “% Change (Compound I-Vehicle)/Vehicle, mg/kg of body weight” value (from here on “% Change … of body weight”) ([2]; 0-6 hours post-operatively) was −25% and the “% Change (Compound I-Vehicle)/Vehicle, number of pills” value (“% Change … of pills” below) ([2]; 0-6 hours post-operatively) was −25%. For the same compound, the “amount of oral rescue medication, Mean (SD)” value (“amount … (SD)” for short) ([2]; 0-6 hours post-operatively) was 3.32 (4.684) mg/kg of body weight, the “amount … (SD)” value ([2]; 0-6 hours post-operatively, listed as compound I) was 0.75 (1.032) Number of pills and the “% Change … of body weight” value ([2]; 0-12 hours post-operatively) was −17%. The “% Change … of pills” value ([2]; 0-12 hours post-operatively) was −15%, the “amount … (SD)” value ([2]; 0-12 hours post-operatively) was 6.10 (8.062) mg/kg of body weight and the “amount … (SD)” value ([2]; 0-12 hours post-operatively, listed as compound I) was 1.40 (1.780) Number of pills. For the same compound, the “% Change … of body weight” value ([2]; 0-24 hours post-operatively) was −18%, the “% Change … of pills” value ([2]; 0-24 hours post-operatively) was −16% and the “amount … (SD)” value ([2]; 0-24 hours post-operatively) was 10.17 (12.335) mg/kg of body weight. The “amount … (SD)” value ([2]; 0-24 hours post-operatively, listed as compound I) was 2.35 (2.751) Number of pills, the “% Change … of body weight” value ([2]; 0-48 hours post-operatively) was −14% and the “% Change … of pills” value ([2]; 0-48 hours post-operatively) was −13%. For the same compound, the “amount … (SD)” value ([2]; 0-48 hours post-operatively) was 17.59 (19.850) mg/kg of body weight, the “amount … (SD)” value ([2]; 0-48 hours post-operatively, listed as compound I) was 4.05 (4.466) Number of pills and the “% Change … of body weight” value ([2]; 0-72 hours post-operatively) was −15%. The “% Change … of pills” value ([2]; 0-72 hours post-operatively) was −14%, the “amount … (SD)” value ([2]; 0-72 hours post-operatively) was 18.70 (21.509) mg/kg of body weight and the “amount … (SD)” value ([2]; 0-72 hours post-operatively, listed as compound I) was 4.33 (4.896) Number of pills. The solubility ([3]; isopropyl myristate, oil or lipid, solvent: Isopropyl Myrisate) was 90 µg/mL (≈ 295 µM), the solubility ([3]; oil or lipid, solvent: Medium-Chain Triglycerides (Miglyol 812)) was 100 µg/mL (≈ 328 µM) and the solubility ([3]; oil or lipid, solvent: Mineral Oil) was 30 µg/mL (≈ 98.3 µM). For the same compound, the solubility ([3]; oil or lipid, solvent: Oleyl Alcohol) was 120 µg/mL (≈ 393 µM), the solubility ([3]; organic solvent or mixture, solvent: Diisopropyl Adipate) was 160 µg/mL (≈ 524 µM) and the solubility ([3]; organic solvent or mixture, solvent: Ethanol) was 790 µg/mL (≈ 2590 µM). It also gave a solubility ([3]; organic solvent or mixture, solvent: Hexylene Glycol) of 280 µg/mL (≈ 917 µM), a solubility ([3]; organic solvent or mixture, solvent: Isopropanol) of 330 µg/mL (≈ 1080 µM) and a solubility ([3]; organic solvent or mixture, solvent: Isosorbide) of 340 µg/mL (≈ 1110 µM). For the same compound, the solubility ([3]; organic solvent or mixture, solvent: Polyethylene Glycol 200) was 1620 µg/mL (≈ 5310 µM), the solubility ([3]; organic solvent or mixture, solvent: Polyethylene Glycol 300) was 2040 µg/mL (≈ 6680 µM) and the solubility ([3]; organic solvent or mixture, solvent: Polyethylene Glycol 400) was 1660 µg/mL (≈ 5440 µM). The solubility ([3]; organic solvent or mixture, solvent: Propylene Carbonate) was 400 µg/mL (≈ 1310 µM), the solubility ([3]; organic solvent or mixture, solvent: Propylene Glycol) was 1680 µg/mL (≈ 5500 µM) and the solubility ([3]; solvent: Water) was 10 µg/mL (≈ 32.8 µM).
